Experimental data: article PMC11956012, “Optimization of Cyclophilin B-Targeted Tri-vector Inhibitors for Novel MASH Treatments” (Journal of Medicinal Chemistry, 2025)
Values after ≈ are worked out from the molar mass of the structure shown. Like-named read-outs stand apart in the source and are kept apart here.

Tests used:
Cyp A [1] = target: T1, Cyp A (Homo sapiens, UniProt P62937)
Experimental: (§1) The cyclophilin binding properties of the compounds were assessed by Surface Plasmon Resonance (SPR) against Cyp A, B and D isoforms (Table 1, representative sensorgrams are shown in Figure 3A).[35]
Surface Plasmon Resonance (SPR)
(§2) SPR measurements were performed on a Biacore T200 instrument (Cytiva). Ni2+ -
(§3) nitrilotriacetic acid (NTA) sensor chips, 1-ethyl-3-(3-diaminopropyl) carbodiimide
(§4) hydrochloride (EDC) and N hydroxy succinimide (NHS) were purchased from Cytiva.
(§5) Immobilization and covalent stabilization of His-Cyps Pure His-cyclophilins on the NTA
(§6) sensor chip was performed essentially as described. [Wear et al., 2017, FEBS OpenBio], using
(§7) 200 nM concentrations of each protein, in Running Buffer (PBS, pH7.4; 0.05 % surfactant P20,
(§8) 2% v/v ethanol; 50 µM EDTA), at 30 µl min-1 with 60 second contact times on the activated
(§9) NTA surfaces. This gave signals of 1,921 RU for His-CypA, 1932 RU for His-CypB and 1,397
(§10) RU for His-CypD. Specific surface protein activity was assayed by passing saturating amounts
(§11) activity were obtained for His-CypA, -B and –D, respectively.
Kinetic titration experiments
(§12) Single cycle kinetic titration binding experiments were performed in triplicate at 25 °C. 3-fold
(§13) injected over the sensor surface, at 100 µl min-1 with a 90 s contact time and a 90 s dissociation
(§14) time. The sensor surface was regenerated between experiments by dissociating any formed
(§15) complex in running buffer for at least 1,200 seconds. The apparent on-rate (k+) and off-rate (k-
(§16) ) constants and the equilibrium dissociation constant (Kd) were calculated from reference

Cyp D [2] = target: T2, Cyp D (Homo sapiens, UniProt P30405)
Experimental: as §1
Surface Plasmon Resonance (SPR)
as §2, §3, §4, §5, §6, §7, §8, §9, §10, §11
Kinetic titration experiments
as §12, §13, §14, §15, §16

[3] = system: permeabilised human hepatocyte (HepG2) cells; experiment: Calcium Retention Capacity assay; assay type: cell-based; details: for EC50: Homo sapiens
Experimental: Calcium Retention Capacity Assay
The compounds were prepared as a 10 mM stock solution in 100% DMSO. Subsequent dilutions were made in 100% DMSO and then in assay buffer to 10-fold the final concentration.
HepG2 cells were permeabilized with 100 µM digitonin for 10 min in ice cold buffer containing 1mM EGTA. Following two wash steps to remove the digitonin, the cells were plated into 96 well black and clear plates at 106 cell per well in a 180 µL assay buffer containing 0.5 µM Calcium Green 5N. Compounds dilution were prepared in DMSO to 1000 fold the final concentration, diluted 1:100 in assay buffer and added to the assay as 20 µL per well. The assay buffer contained 5 mM glutamate and 2.5 mM malate. The cell plate was immediately run on the FLIPR Tetratm which added 5 µL of 200 µM (5 µM) calcium chloride every 5 minutes whilst reading the plate every 3 seconds. The area under the curve (AUC) of the raw trace was calculated at each concentration. AUC values were plotted against concentration and EC50 values calculated. Experiments were repeated three times and the EC50 value was determined from a curve fitted to the averaged replicates.

Cyp B [4] = target: T3, Cyp B (Homo sapiens, UniProt P23284); experiment: biochemical
T3 sequence (P23284 32-216 limits assumed): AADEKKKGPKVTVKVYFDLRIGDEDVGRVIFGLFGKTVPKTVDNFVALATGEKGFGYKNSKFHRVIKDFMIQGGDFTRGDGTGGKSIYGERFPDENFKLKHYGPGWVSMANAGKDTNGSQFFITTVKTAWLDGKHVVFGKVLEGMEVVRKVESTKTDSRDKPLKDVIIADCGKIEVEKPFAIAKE
Experimental: as §1
Surface Plasmon Resonance (SPR)
as §2, §3, §4, §5, §6, §7, §8, §9, §10, §11
Kinetic titration experiments
as §12, §13, §14, §15, §16

physchem [5] = experiment: physchem
Experimental: (§17) These experiments were subcontracted to Eurofins.
(§18) Kinetic solubility measurements were carried out using a shake-flask technique. Compounds
(§19) were incubated for 24 hours at room temperature. Aqueous solubility (μM) was determined by
(§20) comparing the peak area of the principal peak in a calibration standard (200 μM) containing
(§21) organic solvent (methanol/water, 60/40, v/v) with the peak area of the corresponding peak in a
(§22) buffer sample. In addition, chromatographic purity (%) was defined as the peak area of the
(§23) principal peak relative to the total integrated peak area in the HPLC chromatogram of the
(§24) calibration standard. A chromatogram of the calibration standard of each test compound, along
(§25) with a UV/VIS spectrum with labeled absorbance maxima, was generated.
(§26) These were measured using a shake-flask technique. Compounds were incubated for 60 min at
(§27) room temperature. The total amount of compound was determined as the peak area of the
(§28) principal peak in a calibration standard (100 μM) containing organic solvent (methanol/water,
(§29) 60/40, v/v). The amount of compound in buffer was determined as the combined, volume
(§30) corrected, and weighted areas of the corresponding peaks in the aqueous phases of three
(§31) organic-aqueous samples of different composition. An automated weighting system was used
(§32) to ensure the preferred use of raw data from those samples with well quantifiable peak signals.
(§33) The amount of compound in organic was calculated by subtraction. Subsequently, Log D was
(§34) calculated as the Log10 of the amount of compound in the organic phase divided by the amount
of compound in the aqueous phase.

physchem [6] = experiment: physchem; remark: listed apart in the source
Experimental: as §17, §18, §19, §20, §21, §22, §23, §24, §25, §26, §27, §28, §29, §30, §31, §32, §33, §34
of compound in the aqueous phase.

Cyp B [7] = target: T3, Cyp B; details: from SPR Kd
Experimental: as §1
Surface Plasmon Resonance (SPR)
as §2, §3, §4, §5, §6, §7, §8, §9, §10, §11
Kinetic titration experiments
as §12, §13, §14, §15, §16

[8] = Intrinsic clearance, rat liver microsomes; assay type: in vitro ADME; details: for microsomal CLint: Table 3, read-out: Rat Liver microsomes CL
[9] = Intrinsic clearance, human hepatocytes; assay type: in vitro ADME; details: for hepatocyte CLint: Table 3, read-out: Human Hepatocytes CL
Cyp D [10] = target: T2, Cyp D; experiment: SPR kinetic titration, Cyp D
Experimental: as §1
Surface Plasmon Resonance (SPR)
as §2, §3, §4, §5, §6, §7, §8, §9, §10, §11
Kinetic titration experiments
as §12, §13, §14, §15, §16

Cyp A [11] = target: T1, Cyp A; experiment: SPR kinetic titration, Cyp A
Experimental: as §1
Surface Plasmon Resonance (SPR)
as §2, §3, §4, §5, §6, §7, §8, §9, §10, §11
Kinetic titration experiments
as §12, §13, §14, §15, §16

[12] = Intrinsic clearance, rat hepatocytes; assay type: in vitro ADME; details: for hepatocyte CLint: Table 3, read-out: Rat Hepatocytes CL
[13] = Intrinsic clearance, human liver microsomes; assay type: in vitro ADME; details: for microsomal CLint: Table 3, read-out: Human Liver microsomes CL
in vitro = details: human, Caco-2
[14] = Partition coefficient (Log D), shake-flask; details: octanol/water
Experimental: as §17, §18, §19, §20, §21, §22, §23, §24, §25, §26, §27, §28, §29, §30, §31, §32, §33, §34
of compound in the aqueous phase.

[15] = system: Salmonella typhimurium TA98; experiment: Ames fluctuation test TA98; details: for Ames fluctuation test TA98 +S9: with rat liver S9; for Ames fluctuation test TA98 –S9: without S9
Experimental: (§35) Bacterial cytotoxicity tests were carried out using Reverted Salmonella typhimurium strains
(§36) (TA98, TA100, TA1535, TA1537) that were incubated 96 hours at 37 Celsius. The results for
(§37) cytotoxicity are expressed as percent of control growth (OD650). Compounds with growth of
(§38) less than 60 % of control are flagged and considered cytotoxic.
(§39) Compounds were incubated for 96 hours at 37°C at 4 different concentrations (5 mM, 10 mM,
(§40) the absence and presence of rat liver S9 microsomes.
(§41) to the reversion of the histidine mutation (as judged by the ratio of OD430/OD570 being greater
(§42) than 1.0) are counted and recorded as positive counts. The significance of the positive counts
(§43) between the treatment (in the presence of test compound) and the control (in the absence of test
(§44) compound) are calculated using the one-tailed Fisher's exact test. Three significance levels are
(§45) Very strong positive, if p < 0.001, denoted as "+++"
(§46) Control experiments were carried out with 2-aminoanthracene (10 mM), 9-aminoacridine (10
(§47) mM), quercetin (30 mM) and streptozocitin (2.5 mM).

[16] = system: Salmonella typhimurium TA1537; experiment: Ames fluctuation test TA1537; details: for Ames fluctuation test TA1537 +S9: with rat liver S9; for Ames fluctuation test TA1537 –S9: without S9
Experimental: as §35, §36, §37, §38, §39, §40, §41, §42, §43, §44, §45, §46, §47

[17] = system: Salmonella typhimurium TA100; experiment: Ames fluctuation test TA100; details: for Ames fluctuation test TA100 +S9: with rat liver S9; for Ames fluctuation test TA100 –S9: without S9
Experimental: as §35, §36, §37, §38, §39, §40, §41, §42, §43, §44, §45, §46, §47

Caco-2 = Caco-2 permeability; details: apparent permeability A-B
Caco-2 permeability = details: human, Caco-2
[18] = Aqueous kinetic solubility, shake-flask
Experimental: as §17, §18, §19, §20, §21, §22, §23, §24, §25, §26, §27, §28, §29, §30, §31, §32, §33, §34
of compound in the aqueous phase.

[19] = system: Salmonella typhimurium TA1535; experiment: Ames fluctuation test TA1535; details: for Ames fluctuation test TA1535 +S9: with rat liver S9; for Ames fluctuation test TA1535 –S9: without S9
Experimental: as §35, §36, §37, §38, §39, §40, §41, §42, §43, §44, §45, §46, §47

[20] = system: Salmonella typhimurium strains (TA98, TA100, TA1535, TA1537); experiment: Ames tests, all strains (summary in words); details: in absence and presence of liver S9 fractions
Experimental: as §35, §36, §37, §38, §39, §40, §41, §42, §43, §44, §45, §46, §47

iPSC-derived hepatocytes = experiment: In vitro hepatic steatosis (MASH) assay; assay type: cell-based; details: 48 h treatment
[21] = set-up: method as in PMID 38324483; details: phase III trial; cited from earlier work
[22] = digitonin-permeabilised HepG2 cells, read-out: EC50 CRC assay
[23] = Kd Cyp B, SPR-derived dissociation constant, 25 °C
[24] = read-out: Rat Liver microsomes t1/2
[25] = hepatocytes, read-out: Human Hepatocytes t1/2
[26] = hepatocytes, read-out: Rat Hepatocytes t1/2
[27] = read-out: Human Liver microsomes t1/2

T1 sequence (P62937 whole entry): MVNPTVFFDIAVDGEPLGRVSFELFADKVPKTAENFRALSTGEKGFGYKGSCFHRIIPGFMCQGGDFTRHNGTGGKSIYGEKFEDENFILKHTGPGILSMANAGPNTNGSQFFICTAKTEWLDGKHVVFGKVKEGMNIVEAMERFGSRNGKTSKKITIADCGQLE
T2 sequence (P30405 42-207): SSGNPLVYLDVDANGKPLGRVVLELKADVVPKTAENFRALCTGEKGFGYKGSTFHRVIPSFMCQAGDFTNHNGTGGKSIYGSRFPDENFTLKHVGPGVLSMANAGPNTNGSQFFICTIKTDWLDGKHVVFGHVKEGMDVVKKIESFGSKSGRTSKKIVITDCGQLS

`CSc1ccccc1[C@H]1CCCN1C(=O)CNC(=O)N(Cc1ccc(N)cc1)Cc1nnn(C)n1` [Compound 2, 1-[(4-Aminophenyl)methyl]-1-[(2-methyltetrazol-5-yl)methyl]-3-[2-oxo-2-[(2R)-2-(2-methylsulfanylphenyl)pyrrolidin-1-yl]ethyl]urea] gave a Kd (Cyp A [1]) of 90 ± 10 nM, a Kd (Cyp D [2]) of 80 ± 10 nM and an EC50 [3, 22] of 1390 nM. The Kd (Cyp B [4]) was 12 ± 4 nM.
`CSc1ccccc1[C@H]1CCCN1C(=O)CNC(=O)N(Cc1ccc2c(c1)[C@H]1C[C@@H](N2)[C@H](O)CO1)Cc1nnn(C)n1` [Compound 3, 1-[[(1S,9R,10S)-10-Hydroxy-12-oxa-8-azatricyclo[7.3.1.0,^27]trideca-2,4,6-trien-4-yl]methyl]-3-[2-[(2R)-2-(2-methylsulfanylphenyl)pyrrolidin-1-yl]-2-oxo-ethyl]-1-[(2-methyltetrazol-5-yl)methyl]urea] showed a solubility (physchem [5]) of 54 µM (≈ 32 µg/mL), a solubility (physchem [5]; pH 7.4) greater than 200 µM and a logD (physchem [6]) of 0.66. For the same molecule, the “selectivity for Cyp B over Cyp A” value (Cyp B [7]) was 3 fold, the half-life [8] was 51 min and the microsomal CLint [8] was 137 µL/min/mg. The EC50 ([3]; HepG2, read-out: EC50 CRC assay) was 244 nM, the “greater efficacy over CsA in the calcium retention assay” value ([3]; from EC50 values) was 2 fold and the half-life ([9]; cryopreserved hepatocytes) was greater than 120 min. The hepatocyte CLint ([9]; cryopreserved hepatocytes) was less than 8 µL/min/1e6 cells, the Kd (Cyp D [10]) was 8 ± 3 nM and the Kd (Cyp A [11]) was 6 ± 2 nM. It also gave a Kd (Cyp B [4]; [23]) of 2 ± 1 nM, a half-life ([12]; cryopreserved hepatocytes) greater than 120 min and a hepatocyte CLint ([12]; cryopreserved hepatocytes) of less than 8 µL/min/1e6 cells. For the same molecule, the half-life [13] was 41 min, the microsomal CLint [13] was 169 µL/min/mg and the Papp A→B (in vitro) was 0.03 ×10⁻⁶ cm/s. It also gave an efflux ratio (in vitro) of 37.
With `CSc1ccccc1[C@@H]1CCCN1C(=O)CNC(=O)N(Cc1ccc2c(c1)[C@@H]1C[C@@H](N2)[C@H](O)CO1)Cc1nnn(C)n1` [Compound 4, 1-[[(1S,9R,10S)-10-Hydroxy-12-oxa-8-azatricyclo[7.3.1.0,^27]trideca-2,4,6-trien-4-yl]methyl]-3-[2-[(2S)-2-(2-methylsulfanylphenyl)pyrrolidin-1-yl]-2-oxo-ethyl]-1-[(2-methyltetrazol-5-yl)methyl]urea] the Kd (Cyp A [1]) was 310 ± 40 nM, the Kd (Cyp D [2]) was 400 ± 30 nM and the EC50 [3, 22] was 4120 nM. The Kd (Cyp B [4]; [23]) was 420 ± 80 nM.
In the case of `Cn1nnc(CN(Cc2ccc(N)c(Cl)c2)C(=O)NCC(=O)N2CCC[C@@H]2c2ccccc2Br)n1` [Compound 10, 1-[(4-Amino-3-chloro-phenyl)methyl]-1-[(2-methyltetrazol-5-yl)methyl]-3-[2-oxo-2-[(2R)-2-(2-bromophenyl)pyrrolidin-1-yl]ethyl]urea], the logD at 1 h, 100 µM [14] is reported as 1.74, the “Ames fluctuation test TA98 +S9” value [15] is reported as “neg/neg” and the “Ames fluctuation test TA98 –S9” value [15] is reported as “neg/neg”. The “Ames fluctuation test TA1537 +S9” value [16] was “neg/neg”, the “Ames fluctuation test TA1537 –S9” value [16] was “neg/neg” and the “Ames fluctuation test TA100 +S9” value [17] was “neg/neg”. The “Ames fluctuation test TA100 –S9” value [17] was “neg/neg”, the “Caco-2 A-B” value (Caco-2) was 6.6 10^–6 cm/s and the efflux ratio (Caco-2 permeability) was 1.9. It also gave a solubility at 24 h ([18]; PBS, pH 7.4) greater than 200 µM, a solubility at 24 h ([18]; simulated gastric fluid) greater than 200 µM and a solubility at 24 h ([18]; simulated intestinal fluid) greater than 200 µM. The Kd (Cyp A [1]) was 200 ± 40 nM, the microsomal CLint [8] was 238 µL/min/mg and the half-life [8, 24] was 29 min. For the same molecule, the Kd (Cyp D [2]) was 580 ± 100 nM, the “Ames fluctuation test TA1535 +S9” value [19] was “neg/neg” and the “Ames fluctuation test TA1535 –S9” value [19] was “neg/neg”. The hepatocyte CLint ([9]; hepatocytes) was 12 µL/min/1e6 cells, the half-life [9, 25] was 85 min and the “Ames result in all strains tested” value [20] was “negative”. It also gave a Kd (Cyp B [4]) of 35 ± 6 nM, a hepatocyte CLint ([12]; hepatocytes) of less than 8 µL/min/1e6 cells and a half-life [12, 26] greater than 120 min. The microsomal CLint [13] was 344 µL/min/mg and the half-life [13, 27] was 20 min.
With `CSc1ccccc1[C@H]1CCCN1C(=O)CNC(=O)N(Cc1cnc(N)nc1)Cc1ncc(C)s1` [Compound 12, 1-[(2-Aminopyrimidin-5-yl)methyl]-1-[(5-methylthiazol-2-yl)methyl]-3-[2-oxo-2-[(2R)-2-(2-methylsulfanylphenyl)pyrrolidin-1-yl]ethyl]urea] the logD at 1 h, 100 µM [14] was 1.27, the “Ames fluctuation test TA98 +S9” value [15] was “neg/neg” and the “Ames fluctuation test TA98 –S9” value [15] was “neg/neg”. For the same molecule, the “Ames fluctuation test TA1537 +S9” value [16] was “neg/neg”, the “Ames fluctuation test TA1537 –S9” value [16] was “neg/neg” and the “Ames fluctuation test TA100 +S9” value [17] was “neg/neg”. The “Ames fluctuation test TA100 –S9” value [17] was “neg/neg”, the “Caco-2 A-B” value (Caco-2) was 0.8 10^–6 cm/s and the efflux ratio (Caco-2 permeability) was 16. For the same molecule, the solubility at 24 h ([18]; PBS, pH 7.4) was greater than 200 µM, the solubility at 24 h ([18]; simulated gastric fluid) was greater than 200 µM and the solubility at 24 h ([18]; simulated intestinal fluid) was greater than 200 µM. The Kd (Cyp A [1]) was 7300 ± 1000 nM, the “selectivity for Cyp B over Cyp A” value (Cyp B [7]) was 80 fold and the “effect on hepatocyte overall lipid levels and lipid droplet size (in words)” value (iPSC-derived hepatocytes) was “lack of potency”. For the same molecule, the EC50 (iPSC-derived hepatocytes; Hepatocyte, 48 h, read-out: EC50 MASH assay) was greater than 10000 nM, the microsomal CLint [8] was 449 µL/min/mg and the half-life [8, 24] was 15 min. For the same molecule, the Kd (Cyp D [2]) was 1500 ± 500 nM, the “Ames fluctuation test TA1535 +S9” value [19] was “neg/neg” and the “Ames fluctuation test TA1535 –S9” value [19] was “neg/neg”. For the same molecule, the hepatocyte CLint ([9]; hepatocytes) was 11 µL/min/1e6 cells, the half-life [9, 25] was 94 min and the “Ames result in all strains tested” value [20] was “negative”. The Kd (Cyp B [4]; [23]) was 88 ± 20 nM, the hepatocyte CLint ([12]; hepatocytes) was 12 µL/min/1e6 cells and the half-life [12, 26] was 84 min. For the same molecule, the microsomal CLint [13] was 604 µL/min/mg and the half-life [13, 27] was 11 min.
`CSc1ccccc1[C@H]1CCCN1C(=O)CN1C(=O)CN(Cc2cc(F)c(N)c(F)c2)C1=O` [Compound 15, 1-[(4-Amino-3,5-difluoro-phenyl)methyl]-3-[2-oxo-2-[(2R)-2-(2-methylsulfanylphenyl)pyrrolidine-1-yl]ethyl]imidazolidine-2,4-dione] showed a Kd (Cyp D [2]) of 6300 ± 1600 nM, a Kd (Cyp A [11]) of 6700 ± 2600 nM and a Kd (Cyp B [4]) of 3800 ± 1300 nM.
For `CC(C)c1cc(Oc2c(Cl)cc(-n3nc(C#N)c(=O)[nH]c3=O)cc2Cl)n[nH]c1=O` [Resmetirom, reference compound], the “patients with improved liver pathology” value [21] is given as 25–30%, the EC50 (iPSC-derived hepatocytes; 95% CI [lower limit, upper limit], listed as Res, read-out: EC50 steatosis) is given as 261 nM and the EC50 (iPSC-derived hepatocytes; Hepatocyte, 48 h, 95% CI [lower limit, upper limit], read-out: EC50 steatosis) is given as roughly 300 nM.
